Measurements from ChEMBL document CHEMBL5335829, “Akedanones A-C, In Vitro and In Vivo Antiplasmodial 2,3-Dihydronaphthoquinones Produced by Streptomyces sp. K20-0187” (J Nat Prod, 2024).
Values after ≈ are worked out from the molar mass of the structure shown. Active and inactive are the calls of the source. The calls are words filed in the database; no cut-off is given here.

Assays:
HeLa S3 = assay: Cytotoxicity against human HeLa S3 cells assessed as reduction in cell growth incubated for 3 days; type: functional, cell-based; conditions: HeLa S3, 72 h
B16 = assay: Cytotoxicity against mouse B16 cells assessed as reduction in cell growth incubated for 3 days; type: functional, cell-based; conditions: B16, 72 h
[1] = Cytotoxicity against human MRC5 cells assessed as inhibition of cell growth; type: toxicity, cell-based
[2] = Selectivity index, ratio of IC50 for cytotoxicity against human MRC5 cells assessed as inhibition of cell growth to IC50 for antimalarial activity against […] assessed as parasite growth inhibition; type: toxicity, cell-based; conditions: MRC5 cells versus Plasmodium falciparum FCR3, read-out: Ratio IC50
Plasmodium falciparum [3] = assay: Antimalarial activity against chloroquine-resistant Plasmodium falciparum K1 assessed as parasite growth inhibition; type: functional, organism-based
[4] = Selectivity index, ratio of IC50 for cytotoxicity against human MRC5 cells assessed as inhibition of cell growth to IC50 for antimalarial activity against chloroquine-resistant Plasmodium falciparum K1 assessed as parasite growth inhibition; type: toxicity, cell-based; conditions: MRC5 cells versus Plasmodium falciparum K1, read-out: Ratio IC50
Kocuria rhizophila [5] = assay: Antimicrobial activity against Kocuria rhizophila KB212 ATCC 9341 at 30 ug incubated for 1 to 2 days by paper disc method; type: functional, organism-based; conditions: dose 30.0 µg, time 1-2 day
Plasmodium falciparum [6] = assay: Antiplasmodial activity against chloroquine-resistant Plasmodium falciparum K1 assessed as parasite growth inhibition; type: functional, organism-based
Xanthomonas oryzae = assay: Antimicrobial activity against Xanthomonas oryzae KB88 assessed as reduction in bacterial growth incubated for 1 to 2 days by paper disc method; type: functional, organism-based; conditions: time 1-2 day
Plasmodium berghei = assay: Antiplasmodial activity against Plasmodium berghei infected in ICR mouse model assessed as reduction in parasitaemia at 5 mg/kg, ip measured for 4 days by peters 4 day suppressive test; type: functional; parameters: scale not given: the % may be the effect or the level left
[7] = Toxicity in ICR mouse assessed as body weight loss at 5 mg/kg, ip measured for 4 days; type: organism-based; conditions: in vivo, 96 h, time 4 day
Candida albicans = assay: Antimicrobial activity against Candida albicans KF assessed as reduction in […] growth KF1 ATCC 64584 incubated for 1 to 2 days by paper disc method; type: functional, organism-based; conditions: time 1-2 day
[8] = Selectivity index, ratio of IC50 for cytotoxicity against human MRC5 cells assessed as inhibition of cell growth to IC50 for antiplasmodial activity against […] assessed as parasite growth inhibition; type: toxicity, cell-based; conditions: MRC5 cells versus Plasmodium falciparum FCR3, read-out: Ratio IC50
[9] = Selectivity index, ratio of IC50 for cytotoxicity against human MRC5 cells assessed as inhibition of cell growth to IC50 for antiplasmodial activity against chloroquine-resistant Plasmodium falciparum K1 assessed as parasite growth inhibition; type: toxicity, cell-based; conditions: MRC5 cells versus Plasmodium falciparum K1, read-out: Ratio IC50
Escherichia coli = assay: Antimicrobial activity against Escherichia coli KB213 NIHJ assessed as reduction in bacterial growth incubated for 1 to 2 days by paper disc method; type: functional, organism-based; conditions: time 1-2 day
Plasmodium falciparum [10] = assay: Antiplasmodial activity against chloroquine-sensitive Plasmodium falciparum FCR3 assessed as parasite growth inhibition; type: functional, organism-based
Kocuria rhizophila [11] = assay: Antimicrobial activity against Kocuria rhizophila KB212 ATCC 9341 assessed as reduction in bacterial growth incubated for 1 to 2 days by paper disc method; type: functional, organism-based; conditions: time 1-2 day
Staphylococcus aureus [12] = assay: Antimicrobial activity against Staphylococcus aureus KB210 ATCC 6538P assessed as reduction in bacterial growth incubated for 1 to 2 days by paper disc method; type: functional, organism-based; conditions: time 1-2 day
Staphylococcus aureus [13] = assay: Antimicrobial activity against Staphylococcus aureus KB210 ATCC 6538P at > 10 ug incubated for 1 to 2 days by paper disc method; type: functional, organism-based; conditions: dose > 10.0 µg, time 1-2 day
[14] = Acute toxicity in ICR mouse assessed as sedation at 60 mg/kg, ip and measured for 2 hrs; type: organism-based; conditions: in vivo
Plasmodium falciparum [15] = assay: Antiplasmodial activity against Plasmodium falciparum Dd2 assessed as inhibition of parasite growth; type: functional, organism-based

| Structure (SMILES) | IC50 [1] | IC50 (Plasmodium falciparum [6]) | Activity (Xanthomonas oryzae) | Activity (Plasmodium berghei) | Activity [7] | Activity (Candida albicans) | selectivity ratio [8] | selectivity ratio [9] | Activity (Escherichia coli) | IC50 (Plasmodium falciparum [10]) | Activity (Kocuria rhizophila [11]) | Activity (Staphylococcus aureus [12]) | Activity (Staphylococcus aureus [13]) | also measured |
| --- | --- | --- | --- | --- | --- | --- | --- | --- | --- | --- | --- | --- | --- | --- |
| COC1=C(C)C(=O)c2c(cc(O)c3c2O[C@H](C)[C@]3(C)CCC=C(C)C)C1=O | – | – | – | – | – | – | – | – | – | – | – | – | – | IC50 (HeLa S3): 1.22 µg/mL (≈ 3.29 µM); IC50 (B16): 0.63 µg/mL (≈ 1.7 µM) |
| C[C@@H]1CC[C@H]2[C@@H](C)C(=O)O[C@@H]3O[C@@]4(C)CC[C@@H]1[C@]32OO4 [ARTEMISININ] | > 25 µM | – | – | – | – | – | – | – | – | – | – | – | – | selectivity ratio [2]: > 800; IC50 (Plasmodium falciparum [3]): 0.03 µM; selectivity ratio [4]: > 800 |
| COC1=C(C)C(=O)c2c(cc3c(c2O)C(C)(CCC=C(C)C)C(C)O3)C1=O (centres undefined) | 1.7 µM | 0.3 µM | Active | 43.1% | Non-Toxic | Active | 28.3 | 5.7 | Active | 0.06 µM | Active | Active | – | Activity (Kocuria rhizophila [5]): inactive |
| C=CC(C)(C)c1c(O)cc2c(c1O)C(=O)[C@@]1(C)O[C@@]1(CC=C(C)C)C2=O | 0.7 µM | 0.2 µM | Active | 47.6% | Non-Toxic | Active | 8.8 | 3.5 | Active | 0.08 µM | Active | Active | Active | Activity [14]: Non-Toxic |
| C=CC(C)(C)c1c(O)cc2c(c1O)C(=O)[C@@](C)(O)[C@@H](CC=C(C)C)C2=O | 68.8 µM | 14.5 µM | Active | – | – | Active | 3.2 | 4.7 | Active | 21.7 µM | Active | Active | Active | – |
| CC(C)=CCC1=C(O)C(=O)c2c(O)ccc(O)c2C1=O | – | – | – | – | – | – | – | – | – | – | – | – | – | IC50 (Plasmodium falciparum [15]): 0.82 µg/mL (≈ 2.99 µM) |
| C[C@H]1[C@H](OC(=O)CCC(=O)O)O[C@@H]2O[C@@]3(C)CC[C@H]4[C@H](C)CC[C@@H]1[C@@]24OO3 [ARTESUNATE] | – | – | – | 94.2% | Non-Toxic | – | – | – | – | – | – | – | – | – |
| C=CC(C)(C)c1c(O)cc2c(c1O)C(=O)[C@@](C)(O)[C@H](CC=C(C)C)C2=O | 94.2 µM | 43.3 µM | Active | – | – | Active | 1.8 | 2.2 | Active | 51.2 µM | Active | Active | Active | – |
| CCN(CC)CCCC(C)Nc1ccnc2cc(Cl)ccc12 (centres undefined) [CHLOROQUINE] | > 25 µM | – | – | – | – | – | – | – | – | – | – | – | – | – |
